Laboratory results published in US20250040548A1, “Herbicidal compositions comprising saflufenacil” (BASF SF, priority 2023, published 2025).

Columns and labels:
COMBE = assay: Post-emergence application in greenhouse trials; assay type: in vivo, Commelina benghalensis; details: growth stage 21, 1% MSO
Procedure: (§1) In the examples below, using the method of S. R. Colby (1967) “Calculating synergistic and antagonistic responses of herbicide combinations”, Weeds 15, p. 22ff., the value E, which is expected if the activity of the individual active compounds is only additive, was calculated.
(§2) [formula] • where • X=percent activity using active herbicide A at an application rate a; • Y=percent activity using active saflufenacil at an application rate b; • E=expected activity (in %) by A+B at application rates a+b.
(§3) If the value found experimentally is higher than the value E calculated according to Colby, a synergistic effect is present.
(§4) The culture containers used were plastic pots containing loamy sand with approximately 3.0% of humus as substrate. The seeds of the test plants were sown separately for each species.
(§5) For the post-emergence treatment, the test plants were grown to a plant height of from 3 to 15 cm, depending on the plant habit, and only then treated with the active compounds which had been suspended or emulsified in water. To this end, the test plants were either sown directly, and grown in the same containers, or they were first grown separately as seedlings and transplanted into the test containers a few days prior to treatment.
(§6) Depending on the species, the plants were kept at 10-25° C. and 20-35° C., respectively.
(§7) The test period extended over 2 to 4 weeks. During this time, the plants were tended and their response to the individual treatments was evaluated.
(§8) Evaluation was carried out using a scale from 0 to 100. 100 means no emergence of the plants, or complete destruction of at least the above-ground parts, and 0 means no damage or normal course of growth. A good herbicidal activity is given at values of at least 70, and very good herbicidal activity is given at values of at least 85.
(§9) Unless indicated otherwise, herbicide A and saflufenacil were formulated (50 g/I) and applied with addition of 1% MSO (methylated seed oil) as adjuvant. In the greenhouse trials, the solvent used was water (200 I/ha).

KCHSC = assay: Post-emergence application in greenhouse trials; assay type: in vivo, Kochia scoparia; details: growth stage 33, 1% MSO
Procedure: as §1, §2, §3, §4, §5, §6, §7, §8, §9

ALOMY = assay: Post-emergence application in greenhouse trials; assay type: in vivo, Alopercurus myosuroides; details: B-1 3.12 g ai/ha, 7 DAT, growth stage 21, saflufenacil as commercial 342 g/l SC formulation
Procedure: as §1, §2, §3, §4
(§10) For the post-emergence treatment, the test plants were grown to a plant height of from 3 to 15 cm, depending on the plant habit, and only then treated with the active compounds which had been suspended or emulsified in water. To this end, the test plants were either sown directly, and grown in the same containers, or they were first grown separately as seedlings and transplanted into the test containers a few days prior to treatment. […]
(§11) The test period extended over 2 to 4 weeks. During this time, the plants were tended and their response to the individual treatments was evaluated. […]

BRADC [1] = assay: Post-emergence application in greenhouse trials; assay type: in vivo, Brachiaria decumbens; details: B-1 3.12 g ai/ha, growth stage 12, saflufenacil as commercial 342 g/l SC formulation
Procedure: as §1, §2, §3, §4, §5, §6, §7, §8, §9

ELEIN = assay: Post-emergence application in greenhouse trials; assay type: in vivo, Eleusine indica; details: B-1 3.12 g ai/ha, 21 DAT, growth stage 21, saflufenacil as commercial 342 g/l SC formulation
Procedure: as §1, §2, §3, §4, §10, §11

BIDPI = assay: Post-emergence application in field trials (Examples 2 and 3); assay type: in vivo, Bidens pilosa; details: B-1 25 g ai/ha, 21 DAT, growth stage 12-16, height 5-10 cm, 0.5% MSO
Procedure: as §1, §2, §3
(§12) On field test sites, natural weed infestation or seeded weeds were treated post-emergence of the weeds.
(§13) For the post emergence treatment, the weedy plants were treated as indicated below. The herbicidal compositions were, together with the adjuvant(s) as indicated, suspended or emulsified in water (200 l/ha unless indicated otherwise) as distribution medium and sprayed with commercial flat fan nozzles.
(§14) In the following experiments, the herbicidal activity for the individual herbicidal compositions (solo and mixture applications) was assessed the indicated days after treatment (DAT). The assessments for the damage on undesired weeds caused by the composition was carried out using a scale from 0 to 100%, compared to the untreated control plants. […]

BRADC [2] = assay: as above; assay type: in vivo, Brachiaria decumbens; details: growth stage 22-23, height 32-38 cm, B-1 solo 25 g ai/ha, 21 DAT, 1% Dash ® HC
Procedure: as §1, §2, §3, §12, §13
(§15) In the following experiments, the herbicidal activity for the individual herbicidal compositions (solo and mixture applications) was assessed the indicated days after treatment (DAT). The assessments for the damage on undesired weeds caused by the composition was carried out using a scale from 0 to 100%, compared to the untreated control plants. Here, 0 means no damage and 100 means complete destruction of the plants.
(§16) For the post emergence treatment, the weedy plants were treated as indicated below. The herbicidal compositions were, together with the adjuvant(s) as indicated, suspended or emulsified in water (200 I/ha unless indicated otherwise) as distribution medium and sprayed with commercial flat fan nozzles.

CYPES = assay: as above; assay type: in vivo, Cyperus esculentus; details: B-1 12.5 g ai/ha, 21 DAT, height 15-23 cm, 140 l/ha water, 1% MSO + 2.5% ammoniumsulfate
Procedure: as §1, §2, §3, §12, §13, §14

DIGSA = assay: as above; assay type: in vivo, Digitaria sanguinales
Procedure: as §1, §2, §3, §12, §13, §15, §16

DIGIN = assay: as above; assay type: in vivo, Digitaria insularis
Procedure: as §1, §2, §3, §12, §13, §15, §16

ERISS = assay: as above; assay type: in vivo, Erigeron sp.; details: B-1 25 g ai/ha, 14 DAT, height 30-50 cm, 0.5% v/v MSO
Procedure: as §1, §2, §3, §12, §13, §15, §16

[3] = test system: HORVS* (non-PPOi herbicide tolerant); assay: as above; assay type: in vivo, Hordeum vulgare; details: 1% v/v MSO
Procedure: as §1, §2, §3, §12, §13, §15, §16

LAMAN = assay: as above; assay type: in vivo, Lamium amplexicaule; details: height 3-18 cm, B-1 solo 25 g ai/ha, 21 DAT, 1% v/v MSO and 1% AMS (ammonium sulfate)
Procedure: as §1, §2, §3, §12, §13, §14

LOLRI = assay: as above; assay type: in vivo, Lolium rigidum; details: growth stage 12-22, B-1 solo 25 g ai/ha, 14 DAT, 1% v/ MSO
Procedure: as §1, §2, §3, §12, §13, §14

[4] = test system: ZEAMX* (non-PPOi herbicide tolerant); assay: as above; assay type: in vivo, Zea mays; details: B-1 25 g ai/ha, 21 DAT
Procedure: as §1, §2, §3, §12, §13, §15, §16

Q: CC(C)N(C)S(=O)(=O)NC(=O)c1cc(-n2c(=O)cc(C(F)(F)F)n(C)c2=O)c(F)cc1Cl [B-1, saflufenacil] was tested. Which “% Herbicidal activity” value (COMBE; B-1 0.2 g ai/ha, 6 DAT) did it give?
A: The value was 15%.

Q: What about the “% Herbicidal activity” value (COMBE; B-1 0.2 g ai/ha, 20 DAT) of the same compound?
A: Its value is 5%.

Q: What about the “% Herbicidal activity” value (COMBE; B-1 0.8 g ai/ha, 20 DAT) of the same compound?
A: Its value is 75%.

Q: And the “% Herbicidal activity” value (KCHSC; B-1 0.2 g ai/ha, 6 DAT)?
A: Its value is 15%.

Q: And the “% Herbicidal activity” value (KCHSC; B-1 0.3 g ai/ha, 6 DAT)?
A: The value was 35%.

Q: And the “% Herbicidal activity” value (KCHSC; B-1 0.8 g ai/ha, 6 DAT)?
A: The value was 60%.

Q: And the “% Herbicidal activity” value (KCHSC; B-1 0.8 g ai/ha, 20 DAT)?
A: The value was 70%.

Q: And the “% Herbicidal activity” value (KCHSC; B-1 0.9 g ai/ha, 6 DAT)?
A: The value was 60%.

Q: What about the “% Herbicidal activity” value (KCHSC; B-1 1 g ai/ha, 6 DAT) of the same compound?
A: The value was 80%.

Q: What about the “% Herbicidal activity” value (KCHSC; B-1 1 g ai/ha, 20 DAT) of the same compound?
A: Its value is 80%.

Q: And the “% Herbicidal activity” value (ALOMY)?
A: Its value is 25%.

Q: What about the “% Herbicidal activity” value (BRADC [1]; 7 DAT) of the same compound?
A: Its value is 40%.

Q: And the “% Herbicidal activity” value (BRADC [1]; 21 DAT)?
A: Its value is 25%.

Q: What about the “% Herbicidal activity” value (ELEIN) of the same compound?
A: The value was 30%.

Q: And the “% Herbicidal activity” value (BIDPI)?
A: The value was 5%.

Q: And the “% Herbicidal activity” value (BRADC [2])?
A: Its value is 12%.

Q: What about the “% Herbicidal activity” value (CYPES) of the same compound?
A: Its value is 25%.

Q: And the “% Herbicidal activity” value (DIGSA; B-1 12.5 g ai/ha, 21 DAT, height 3-12 cm, 140 l/ha water, 1% MSO + 2.5% ammoniumsulfate)?
A: The value was 20%.

Q: What about the “% Herbicidal activity” value (DIGSA; B-1 25 g ai/ha, 19 DAT, growth stage 13-19, height 2.5-7.5 cm, 1% v/v MSO and 1% w/v ammoniumsulfate) of the same compound?
A: The value was 23%.

Q: What about the “% Herbicidal activity” value (DIGIN; B-1 25 g ai/ha, 7 DAT, height 60-80 cm, field, 0.5% v/v MSO) of the same compound?
A: Its value is 8%.

Q: And the “% Herbicidal activity” value (DIGIN; DIGIN, growth stage 65, height 40-50 cm, B-1 solo 25 g ai/ha, 21 DAT, 1% v/v MSO)?
A: Its value is 5%.

Q: And the “% Herbicidal activity” value (ERISS)?
A: Its value is 63%.

Q: And the “% Herbicidal activity” value ([3]; B-1 18 g ai/ha, 29 DAT, growth stage 15-24, height 25-45 cm, field, 100 l/ha water)?
A: The value was 0%.

Q: What about the “% Herbicidal activity” value ([3]; HORVS* (non-PPOi herbicide tolerant), growth stage 15, height 31-43 cm, B-1 solo 25 g ai/ha, 16 DAT) of the same compound?
A: The value was 3%.

Q: And the “% Herbicidal activity” value (LAMAN)?
A: The value was 40%.

Q: What about the “% Herbicidal activity” value (LOLRI) of the same compound?
A: The value was 20%.

Q: What about the “% Herbicidal activity” value ([4]; growth stage 15, 1% v/v MSO and 1% w/v ammoniumsulfate) of the same compound?
A: The value was 15%.

Q: What about the “% Herbicidal activity” value ([4]; growth stage 18, 0.5% MSO) of the same compound?
A: Its value is 0%.
